The text below walks through data of US4593090A, “Novel nitrosourea compounds, method for preparing same, and pharmaceutical composition containing same” (Gogo Kimura, priority 1981, dated 1986).

In one data set the test system is Leukemia L1210. Description: Activity against Leukemia L1210, intraperitoneal, increase in life span of mice. Type of data set: in vivo, female mice (BDF1 family). The following applies: for ED (maximum ILS) / ED30: Mus musculus, L1210, ip; for ED (maximum ILS): read-out: O.D. (optimum dosage); for ED30: read-out: ILS30; for Survivors after 60 days / Max. ILS % / Therapeutic ratio TR: ip; for Survivors after 60 days: 6-membered group; for Max. ILS %: 60-day observation, versus control; for Therapeutic ratio TR: O.D./ILS30. How it is done: Tests were conducted in accordance with the method for measuring antitumor activity of National Cancer Center Tokyo (A, Hoshi et al, Farumashia 9 464 (1973)). Test compounds were each intraperitoneally (referred to as ip) or orally (referred to as op) administered once a day for 5 successive days to a 6-membered group of femal mice (BDF1 family, each weighing 20 to 23 g) 24 hours after 1×10^5 cells of Leukemia L1210 have been implantated into the abdominal cavities of the mice, and the effect was evaluated by comparing the survival days of treated groups with those of an untreated group of mice (control group) in 60-day observation. An increase percentage of life span (ILS%) was calculated from said average survival days compared with those of the control group. Further, therapeutic ratio (O.D./ILD30, referred to as T.R.) of each tested compound was calculated from the daily dosage of the compound necessary to increase said average survival days by 30% as compared with the control group (this dosage is referred to as ILS 30) and the daily dosage giving a maximum increase of life span to mice implantated with L1210 cells, namely an optimum dosage (referred to as O.D.). The results of five successive days intraperitoneal administrations of test compounds were shown in Tables I to III, and those of five successive oral administrations in Table IV.

Data set [1] can be described thus: Acute toxicity (LD50, Behrens-Karber method). Type of data set: in vivo, ICR mice. The following applies: ip, mortality during 30 days; for LD50 at 720 h: mouse, in vivo. How it is done:
Test compounds, dissolved or suspended in 0.5% aqueous CMC, were each intraperitoneally administered to ICR mice in a dose of 0.1 ml per 10 g body weight. LD50 (mg/kg) value of each test compound was calculated from the mortality of mice during 30 days by the Behrens-Karber method.

The mark [2] stands for this setting: ip once a day for 5 successive days, daily dosage giving maximum increase of life span.
[3] abbreviates: ip once a day for 5 successive days, daily dosage increasing average survival days by 30%.

Usually LD50 stands for the dose expected to kill half of the subjects tested. A higher LD50 goes with lower toxicity. Consider `C=C(C)CN(C[C@H]1O[C@H](OC(C)CC)[C@H](O)[C@@H](O)[C@@H]1O)C(=O)N(CCCl)N=O` (stereo partly drawn) [Compound 18, 3-(2-methyl-2-propenyl)-3-(sec-butyl α-D-glucopyranose-6-yl)-1-(2-chloroethyl)-1-nitrosourea], for which the ED (maximum ILS) with Leukemia L1210 (setting [2]) was 170 mg/kg. In the data set on Leukemia L1210 (setting [3]), the ED30 was determined as 3.92 mg/kg. For the same molecule, in the data set with Leukemia L1210, the “Survivors after 60 days” value was 6/6, the “Max. ILS %” value was more than 700% and the “Therapeutic ratio TR” value is listed as 43.4. Further, the LD50 at 720 h in data set [1] was 515 mg/kg.

As for `COc1ccc(CN(C[C@H]2O[C@H](OCC(C)C)[C@H](O)[C@@H](O)[C@@H]2O)C(=O)N(CCCl)N=O)cc1` [Compound 21, 3-(p-methoxybenzyl)-3-(isobutyl α-D-glucopyranose-6-yl)-1-(2-chloroethyl)-1-nitrosourea], the ED (maximum ILS) in the data set with Leukemia L1210 (setting [2]) came out at 200 mg/kg. Besides, the ED30 in the data set with Leukemia L1210 (setting [3]) was 5.45 mg/kg. In the data set with Leukemia L1210, the “Survivors after 60 days” value is given as 3/6, the “Max. ILS %” value is more than 360% and the “Therapeutic ratio TR” value stood at 36.7. Moreover, in data set [1], the LD50 at 720 h was determined as 585 mg/kg.

As for `CC(C)CO[C@H]1O[C@H](CN(Cc2ccccc2)C(=O)N(CCCl)N=O)[C@@H](O)[C@H](O)[C@H]1O` [Compound 22, 3-benzyl-3-(isobutyl α-D-glucopyranose-6-yl)-1-(2-chloroethyl)-1-nitrosourea], in the data set with Leukemia L1210 (setting [2]), the ED (maximum ILS) was 170 mg/kg. For the same molecule, in the data set on Leukemia L1210 (setting [3]), the ED30 was found to be 4.45 mg/kg. Moreover, in the data set on Leukemia L1210, the “Survivors after 60 days” value is given as 3/6, the “Max. ILS %” value was more than 350% and the “Therapeutic ratio TR” value was determined as 38.2. The molecule further came in with an LD50 at 720 h in data set [1] of 510 mg/kg.

As to `CC(C)CO[C@H]1O[C@H](CN(Cc2ccco2)C(=O)N(CCCl)N=O)[C@@H](O)[C@H](O)[C@H]1O` [Compound 24, 3-furfuryl-3-(isobutyl α-D-glucopyranose-6-yl)-1-(2-chloroethyl)-1-nitrosourea], in the data set on Leukemia L1210 (setting [2]), the ED (maximum ILS) stood at 180 mg/kg. Further, in the data set with Leukemia L1210 (setting [3]), the ED30 worked out at 3.1 mg/kg. In addition, in the data set with Leukemia L1210, the “Survivors after 60 days” value is given as 5/6, the “Max. ILS %” value is more than 620% and the “Therapeutic ratio TR” value amounted to 58.1. Further, the LD50 at 720 h in data set [1] amounted to 555 mg/kg.

With `CC(C)CCO[C@H]1O[C@H](CN(CC(C)C)C(=O)N(CCCl)N=O)[C@@H](O)[C@H](O)[C@H]1O` [Compound 25, 3-isobutyl-3-(isopentyl α-D-glucopyranose-6-yl)-1-(2-chloroethyl)-1-nitrosourea], the ED (maximum ILS) in the data set with Leukemia L1210 (setting [2]) is 150 mg/kg. Further, the ED30 in the data set on Leukemia L1210 (setting [3]) is 4.2 mg/kg. Also, in the data set with Leukemia L1210, the “Survivors after 60 days” value was 6/6, the “Max. ILS %” value is given as more than 700% and the “Therapeutic ratio TR” value is recorded as 35.7. In data set [1], the LD50 at 720 h was 450 mg/kg.

`CCCCCCO[C@H]1O[C@H](CN(CC(C)C)C(=O)N(CCCl)N=O)[C@@H](O)[C@H](O)[C@H]1O` [Compound 26, 3-isobutyl-3-(n-hexyl α-D-glucopyranose-6-yl)-1-(2-chloroethyl)-1-nitrosourea]: the ED (maximum ILS) in the data set with Leukemia L1210 (setting [2]) was 140 mg/kg. In the data set with Leukemia L1210 (setting [3]), the ED30 is 4.63 mg/kg. In the data set with Leukemia L1210, the “Survivors after 60 days” value is given as 3/6, the “Max. ILS %” value is more than 370% and the “Therapeutic ratio TR” value was 30.2. In data set [1], this molecule registered an LD50 at 720 h of 415 mg/kg.

`CCCCCCO[C@H]1O[C@H](CN(C(=O)N(CCCl)N=O)C(C)COC)[C@@H](O)[C@H](O)[C@H]1O` (stereo partly drawn) [Compound 27, 3-(1-methyl-2-methoxyethyl)-3-(n-hexyl α-D-glucopyranose-6-yl)-1-(2-chloroethyl)-1-nitrosourea]: in the data set on Leukemia L1210 (setting [2]), the ED (maximum ILS) is 170 mg/kg. Further, the ED30 with Leukemia L1210 (setting [3]) amounted to 4.67 mg/kg. Also, in the data set with Leukemia L1210, the “Survivors after 60 days” value is recorded as 5/6, the “Max. ILS %” value was more than 630% and the “Therapeutic ratio TR” value is listed as 36.4. In addition, in data set [1], the LD50 at 720 h came out at 505 mg/kg.

Turning to `CC(C)CN(C[C@H]1O[C@H](OC(C)(C)C)[C@H](O)[C@@H](O)[C@@H]1O)C(=O)N(CCCl)N=O` [Compound 28, 3-isobutyl-3-(2-methyl-2-propyl α-D-glucopyranose-6-yl)-1-(2-chloroethyl)-1-nitrosourea], in the data set on Leukemia L1210 (setting [2]), the “O.D. (optimum dosage)” value was determined as 130 mg/kg. Further, in the data set with Leukemia L1210 (setting [3]), the ILS30 was 3.00 mg/kg. In addition, in the data set on Leukemia L1210, the “Survivors after 60 days” value was 6/6, the “Max. ILS %” value is reported as more than 700% and the “Therapeutic ratio TR” value is on record as 43.2. Moreover, the LD50 in data set [1] is listed as 375 mg/kg.

Regarding `CC=CCO[C@H]1O[C@H](CN(CC(C)C)C(=O)N(CCCl)N=O)[C@@H](O)[C@H](O)[C@H]1O` [Compound 29, 3-isobutyl-3-(2-butenyl α-D-glucopyranose-6-yl)-1-(2-chloroethyl)-1-nitrosourea], the ED (maximum ILS) in the data set with Leukemia L1210 (setting [2]) amounted to 140 mg/kg. In the data set with Leukemia L1210 (setting [3]), the ED30 turned out to be 3.64 mg/kg. In addition, in the data set on Leukemia L1210, the “Survivors after 60 days” value is 5/6, the “Max. ILS %” value is on record as more than 620% and the “Therapeutic ratio TR” value amounted to 38.5. Besides, the LD50 at 720 h in data set [1] was 410 mg/kg.

As for `CCOCCCO[C@H]1O[C@H](CN(CC(C)C)C(=O)N(CCCl)N=O)[C@@H](O)[C@H](O)[C@H]1O` [Compound 32, 3-isobutyl-3-(3-ethoxy-n-propyl α-D-glucopyranose-6-yl)-1-(2-chloroethyl)-1-nitrosourea], the ED (maximum ILS) with Leukemia L1210 (setting [2]) worked out at 170 mg/kg. For the same molecule, in the data set on Leukemia L1210 (setting [3]), the ED30 worked out at 2.91 mg/kg. For the same molecule, in the data set with Leukemia L1210, the “Survivors after 60 days” value was 6/6, the “Max. ILS %” value is more than 700% and the “Therapeutic ratio TR” value amounted to 58.4. This molecule yielded an LD50 at 720 h in data set [1] of 495 mg/kg.

For `COCC(C)O[C@H]1O[C@H](CN(CC(C)C)C(=O)N(CCCl)N=O)[C@@H](O)[C@H](O)[C@H]1O` (stereo partly drawn) [Compound 33, 3-isobutyl-3-(1-methyl-2-methoxyethyl α-D-glucopyranose-6-yl)-1-(2-chloroethyl)-1-nitrosourea], in the data set with Leukemia L1210 (setting [2]), the ED (maximum ILS) amounted to 170 mg/kg. The ED30 in the data set with Leukemia L1210 (setting [3]) turned out to be 2.62 mg/kg. In the data set on Leukemia L1210, the “Survivors after 60 days” value is reported as 6/6, the “Max. ILS %” value is on record as more than 700% and the “Therapeutic ratio TR” value was 64.9. This molecule also had an LD50 at 720 h in data set [1] of 560 mg/kg.

With `COCC(C)O[C@H]1O[C@H](CN(CC2CC2)C(=O)N(CCCl)N=O)[C@@H](O)[C@H](O)[C@H]1O` (stereo partly drawn) [Compound 34, 3-cyclopropylmethyl-3-(1-methyl-2-methoxyethyl α-D-glucopyranose-6-yl)-1-(2-chloroethyl)-1-nitrosourea], the ED (maximum ILS) with Leukemia L1210 (setting [2]) is 150 mg/kg. Besides, the ED30 with Leukemia L1210 (setting [3]) is 2.34 mg/kg. Besides, in the data set with Leukemia L1210, the “Survivors after 60 days” value is reported as 6/6, the “Max. ILS %” value is more than 700% and the “Therapeutic ratio TR” value was 64.1. For the same molecule, the LD50 at 720 h in data set [1] is 480 mg/kg.

Consider `CC(C)CN(C[C@H]1O[C@H](OC2CCCCC2)[C@H](O)[C@@H](O)[C@@H]1O)C(=O)N(CCCl)N=O` [Compound 36, 3-isobutyl-3-(cyclohexylα-D-glucopyranose-6-yl)-1-(2-chloroethyl)-1-nitrosourea], for which the ED (maximum ILS) in the data set with Leukemia L1210 (setting [2]) was determined as 180 mg/kg. The ED30 with Leukemia L1210 (setting [3]) amounted to 3.69 mg/kg. Also, in the data set on Leukemia L1210, the “Survivors after 60 days” value is on record as 6/6, the “Max. ILS %” value is recorded as more than 700% and the “Therapeutic ratio TR” value is 48.8. In data set [1], this molecule gave an LD50 at 720 h of 580 mg/kg.

As for `CCC(C)N(C[C@H]1O[C@H](OC2CCCCC2)[C@H](O)[C@@H](O)[C@@H]1O)C(=O)N(CCCl)N=O` (stereo partly drawn) [Compound 37, 3-sec-butyl-3-(cyclohexyl α-D-glucopyranose-6-yl)-1-(2-chloroethyl)-1-nitrosourea], the ED (maximum ILS) in the data set with Leukemia L1210 (setting [2]) amounted to 200 mg/kg. In addition, the ED30 in the data set with Leukemia L1210 (setting [3]) amounted to 3.69 mg/kg. In the data set on Leukemia L1210, the “Survivors after 60 days” value is listed as 5/6, the “Max. ILS %” value is reported as more than 620% and the “Therapeutic ratio TR” value is recorded as 54.2. This molecule gave an LD50 at 720 h in data set [1] of 605 mg/kg.
